Assay results as given in patent US20190175744A1, “INSULIN-INCRETIN CONJUGATES” (Merck Sharp & Dohme Corp., priority 2016, published 2019).
Where two headings read alike, the source gives them in different places.

Columns and labels:
human GLP1R = human GLP1R (Homo sapiens, UniProt P43220); assay: cAMP activity assay, cells expressing human GLP1R; format: cell-based
Method: (§1) Activity of the incretin peptides or the conjugates at the Glucagon receptor (GCGR) and GLP-1 receptor (GLP1R) may be measured in a cAMP activity assay as follows.
(§2) Peptides are dissolved in 100% DMSO and serially diluted to generate 10 point titrations. The peptide solutions are then transferred into 384-well assay plates (150 nL/well). Assay ready frozen cells expressing human GLP1R or human GCGR are suspended in growth media consisting of DMEM medium (GIBCO), 10% FBS (GIBCO), 1×NEAA(GIBCO), 1×P/S (GIBCO), 10 μg/mL Blasticidin (GIBCO) and 200 μg/mL Hygromycin (GIBCO). […] The cell suspensions (15 μL) are then added to the assay plates containing the peptide solutions (30,000 cells/well for human GCGR; 10,000 cells/well for human GLP1R). The cells are incubated for one hour at room temperature in the dark.
(§3) Production of cAMP may be determined using HitHunterr cAMPXS kits (DiscoverX) following the manufacturer's protocol. The plates are incubated for overnight at room temperature in the dark. Luminescence may be measured using an EnVision Multilabel plate reader (Perkin Elmer). Native GLP-1 and Glucagon (Bachem) may be used as control peptides. EC50 values may be calculated using uses a 4 parameter logistic fit based on the Levenberg-Marquardt algorithm.

human GCGR = biological target: T1, human GCGR (Homo sapiens, UniProt P47871); assay: cAMP activity assay, cells expressing human GCGR; format: cell-based; details: for GCGR/GLP1R ratio: Table 5, ratio of hGCGR EC50 to hGLP1R EC50;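 as to all read-outs here: cAMP production read by luminescence after one hour of peptide exposure at room temperature, EC50 from logistic curve fit, native glucagon and GLP-1 as control peptides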
T1 construct: expressed in transfected cells; grown with Blasticidin and Hygromycin
T1 sequence (P47871 26-477): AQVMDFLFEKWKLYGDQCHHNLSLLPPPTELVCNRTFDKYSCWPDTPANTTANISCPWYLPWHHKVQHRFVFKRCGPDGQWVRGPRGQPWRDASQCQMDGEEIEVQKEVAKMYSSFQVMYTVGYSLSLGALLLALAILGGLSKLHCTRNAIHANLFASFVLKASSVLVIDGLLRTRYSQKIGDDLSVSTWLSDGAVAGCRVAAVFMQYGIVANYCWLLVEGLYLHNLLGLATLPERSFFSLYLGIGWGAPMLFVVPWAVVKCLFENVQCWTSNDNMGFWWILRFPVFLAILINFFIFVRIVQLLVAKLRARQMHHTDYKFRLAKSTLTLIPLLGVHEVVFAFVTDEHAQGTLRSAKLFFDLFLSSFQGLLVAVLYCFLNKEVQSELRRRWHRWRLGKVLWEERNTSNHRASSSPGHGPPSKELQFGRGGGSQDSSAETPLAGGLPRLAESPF
Method: as §1, §2, §3

human GLP1R, sequence (P43220 24-463): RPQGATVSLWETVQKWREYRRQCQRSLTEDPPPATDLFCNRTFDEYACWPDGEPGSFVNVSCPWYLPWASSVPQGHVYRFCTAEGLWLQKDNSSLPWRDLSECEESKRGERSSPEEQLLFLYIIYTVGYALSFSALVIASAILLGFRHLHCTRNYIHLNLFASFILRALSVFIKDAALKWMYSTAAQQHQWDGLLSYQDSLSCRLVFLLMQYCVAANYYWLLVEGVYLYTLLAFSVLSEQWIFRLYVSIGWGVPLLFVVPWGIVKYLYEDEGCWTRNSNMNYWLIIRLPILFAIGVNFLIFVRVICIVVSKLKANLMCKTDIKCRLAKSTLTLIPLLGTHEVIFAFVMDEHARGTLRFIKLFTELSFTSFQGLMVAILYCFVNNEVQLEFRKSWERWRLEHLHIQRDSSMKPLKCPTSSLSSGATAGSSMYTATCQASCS

| Compound | EC50 (human GLP1R) | EC50 (human GCGR) | GCGR/GLP1R ratio (human GCGR) | further results |
| --- | --- | --- | --- | --- |
| CCCCCCCCCCCCCCCC(=O)N[C@@H](CCC(=O)N[C@@H](CCC(=O)NCCCC[C@H](NC(=O)[C@H](CC(=O)O)NC(=O)[C@H](CO)NC(=O)[C@@H](NC(=O)[C@H](Cc1ccccc1)NC(=O)[C@@H](NC(=O)CNC(=O)[C@H](CCC(N)=O)NC(=O)C(C)(C)NC(=O)[C@@H](N)Cc1c[nH]cn1)[C@@H](C)O)[C@@H](C)O)C(=O)N[C@@H](CO)C(=O)N[C@@H](CCCCN)C(=O)N[C@@H](Cc1ccc(O)cc1)C(=O)N[C@@H](CC(C)C)C(=O)N[C@@H](CC(=O)O)C(=O)NC(C)(C)C(=O)N[C@@H](CCCNC(=N)N)C(=O)N[C@@H](C)C(=O)N[C@@H](C)C(=O)N[C@@H](CCC(N)=O)C(=O)N[C@@H](CC(=O)O)C(=O)N[C@@H](Cc1ccccc1)C(=O)N[C@H](C(=O)N[C@@H](CCCCN=[N+]=[N-])C(=O)N[C@@H](Cc1c[nH]c2ccccc12)C(=O)N[C@@H](CC(C)C)C(=O)N[C@@H](CCS(C)(=O)=O)C(=O)N[C@@H](CCCCN)C(=O)NCC(=O)N[C@@H](CCCNC(=N)N)C(=O)NCC(N)=O)C(C)C)C(=O)O)C(=O)O [PEP3] | 0.02 nM | 0.07 nM | 4.6 |  |
| CC(C)C[C@H](NC(=O)[C@H](Cc1ccc(O)cc1)NC(=O)[C@H](CCCCN)NC(=O)[C@H](CO)NC(=O)[C@H](CCCCN)NC(=O)[C@H](CC(=O)O)NC(=O)[C@H](CO)NC(=O)[C@@H](NC(=O)[C@H](Cc1ccccc1)NC(=O)[C@@H](NC(=O)CNC(=O)[C@H](CCC(N)=O)NC(=O)[C@@H](CO)NC(=O)[C@@H](N)Cc1c[nH]cn1)[C@@H](C)O)[C@@H](C)O)C(=O)N[C@@H](CC(=O)O)C(=O)N[C@@H](CCC(=O)O)C(=O)N[C@@H](CCCNC(=N)N)C(=O)N[C@@H](C)C(=O)N[C@@H](C)C(=O)N[C@@H](CCC(N)=O)C(=O)N[C@@H](CC(=O)O)C(=O)N[C@@H](Cc1ccccc1)C(=O)N[C@H](C(=O)N[C@@H](CCC(N)=O)C(=O)N[C@@H](Cc1c[nH]c2ccccc12)C(=O)N[C@@H](CC(C)C)C(=O)N[C@@H](CC(C)C)C(=O)N[C@@H](CC(=O)O)C(=O)N[C@H](C(=O)N[C@@H](CCCCN=[N+]=[N-])C(N)=O)[C@@H](C)O)C(C)C [PEP73] |  |  | 0.6 |  |
| CCCCCCCCCCCCCCCC(=O)N[C@@H](CCC(=O)N[C@@H](CCC(=O)NCCCC[C@H](NC(=O)[C@H](CC(=O)O)NC(=O)[C@H](CO)NC(=O)[C@@H](NC(=O)[C@H](Cc1ccccc1)NC(=O)[C@@H](NC(=O)CNC(=O)[C@H](CCC(N)=O)NC(=O)[C@@H](CO)NC(=O)[C@@H](N)Cc1c[nH]cn1)[C@@H](C)O)[C@@H](C)O)C(=O)N[C@@H](CO)C(=O)N[C@@H](CCCCN)C(=O)N[C@@H](Cc1ccc(O)cc1)C(=O)N[C@@H](CC(C)C)C(=O)N[C@@H](CC(=O)O)C(=O)N[C@@H](CCC(=O)O)C(=O)N[C@@H](CCCNC(=N)N)C(=O)N[C@@H](C)C(=O)N[C@@H](C)C(=O)N[C@@H](CCC(N)=O)C(=O)N[C@@H](CC(=O)O)C(=O)N[C@@H](Cc1ccccc1)C(=O)N[C@H](C(=O)N[C@@H](CCC(N)=O)C(=O)N[C@@H](Cc1c[nH]c2ccccc12)C(=O)N[C@@H](CC(C)C)C(=O)N[C@@H](CC(C)C)C(=O)N[C@@H](CC(=O)O)C(=O)N[C@H](C(N)=O)[C@@H](C)O)C(C)C)C(=O)O)C(=O)O [PEP76, reference compound] |  |  |  | Ratio GCGR/GLP1R (human GCGR; Table 7, control molecules): 1.3 |
| CC(C)C[C@H](NC(=O)[C@H](Cc1c[nH]c2ccccc12)NC(=O)[C@H](CCC(N)=O)NC(=O)[C@@H](NC(=O)[C@H](Cc1ccccc1)NC(=O)[C@H](CC(=O)O)NC(=O)[C@H](CCC(N)=O)NC(=O)[C@H](C)NC(=O)[C@H](C)NC(=O)[C@H](CCCNC(=N)N)NC(=O)C(C)(C)NC(=O)[C@H](CC(=O)O)NC(=O)[C@H](CC(C)C)NC(=O)[C@H](Cc1ccc(O)cc1)NC(=O)[C@H](CCCCN)NC(=O)[C@H](CO)NC(=O)[C@H](Cc1ccc(O)cc1)NC(=O)[C@H](CC(=O)O)NC(=O)[C@H](CO)NC(=O)[C@@H](NC(=O)[C@H](Cc1ccccc1)NC(=O)[C@@H](NC(=O)CNC(=O)[C@H](CCC(N)=O)NC(=O)C(C)(C)NC(=O)[C@@H](N)Cc1c[nH]cn1)[C@@H](C)O)[C@@H](C)O)C(C)C)C(=O)N[C@@H](CC(C)C)C(=O)N[C@@H](CC(=O)O)C(=O)N[C@H](C(=O)N[C@@H](CCCCN)C(=O)N[C@@H](CCCCNC(=O)COCCOCCNC(=O)COCCOCCNC(=O)CC[C@H](NC(=O)CCCCCCCCCCCCCCCN=[N+]=[N-])C(=O)O)C(N)=O)[C@@H](C)O [PEP28] | 0.16 nM | 0.17 nM | 1.1 |  |
| CCCCCCCCCCCCCCCC(=O)N[C@@H](CCC(=O)N[C@@H](CCC(=O)NCCCC[C@H](NC(=O)[C@H](CC(=O)O)NC(=O)[C@H](CO)NC(=O)[C@@H](NC(=O)[C@H](Cc1ccccc1)NC(=O)[C@@H](NC(=O)CNC(=O)[C@H](CCC(N)=O)NC(=O)[C@@H](CO)NC(=O)[C@@H](N)Cc1c[nH]cn1)[C@@H](C)O)[C@@H](C)O)C(=O)N[C@@H](CO)C(=O)N[C@@H](CCCCN)C(=O)N[C@@H](Cc1ccc(O)cc1)C(=O)N[C@@H](CC(C)C)C(=O)N[C@@H](CC(=O)O)C(=O)N[C@@H](CO)C(=O)N[C@@H](CCCNC(=N)N)C(=O)N[C@@H](CCCNC(=N)N)C(=O)N[C@@H](C)C(=O)N[C@@H](Cc1c[nH]cn1)C(=O)N[C@@H](CC(=O)O)C(=O)N[C@@H](Cc1ccccc1)C(=O)N[C@H](C(=O)N[C@@H](CCCCN=[N+]=[N-])C(=O)N[C@@H](Cc1c[nH]c2ccccc12)C(=O)N[C@@H](CC(C)C)C(=O)N[C@@H](CC(C)C)C(=O)N[C@@H](CC(N)=O)C(=O)N[C@H](C(N)=O)[C@@H](C)O)C(C)C)C(=O)O)C(=O)O [PEP13] | 0.1 nM | 0.04 nM | 0.4 |  |
| CCCCCCCCCCCCCCCC(=O)N[C@@H](CCC(=O)N[C@@H](CCC(=O)NCCCC[C@H](NC(=O)[C@H](CC(=O)O)NC(=O)[C@H](CO)NC(=O)[C@@H](NC(=O)[C@H](Cc1ccccc1)NC(=O)[C@@H](NC(=O)CNC(=O)[C@H](CCC(N)=O)NC(=O)[C@@H](CO)NC(=O)[C@@H](N)Cc1c[nH]cn1)[C@@H](C)O)[C@@H](C)O)C(=O)N[C@@H](CO)C(=O)N[C@@H](CCCCN)C(=O)N[C@@H](Cc1ccc(O)cc1)C(=O)N[C@@H](CC(C)C)C(=O)N[C@@H](CC(=O)O)C(=O)N[C@@H](CCC(=O)O)C(=O)N[C@@H](CCCNC(=N)N)C(=O)N[C@@H](C)C(=O)N[C@@H](C)C(=O)N[C@@H](CCC(N)=O)C(=O)N[C@@](C)(CC(=O)O)C(=O)N[C@@H](Cc1ccccc1)C(=O)N[C@H](C(=O)N[C@@H](CCCCN=[N+]=[N-])C(=O)N[C@@H](Cc1c[nH]c2ccccc12)C(=O)N[C@@H](CC(C)C)C(=O)N[C@@H](CCS(C)(=O)=O)C(=O)N[C@@H](CC(=O)O)C(=O)N[C@H](C(N)=O)[C@@H](C)O)C(C)C)C(=O)O)C(=O)O [PEP34] | 0.05 nM | 0.05 nM | 1.0 |  |
| CCCCCCCCCCCCCCCC(=O)N[C@@H](CCC(=O)N[C@@H](CCC(=O)NCCCC[C@H](NC(=O)[C@H](CC(=O)O)NC(=O)[C@H](CO)NC(=O)[C@@H](NC(=O)[C@H](Cc1ccccc1)NC(=O)[C@@H](NC(=O)CNC(=O)[C@H](CCC(N)=O)NC(=O)[C@@H](CO)NC(=O)[C@@H](N)Cc1c[nH]cn1)[C@@H](C)O)[C@@H](C)O)C(=O)N[C@@H](CO)C(=O)N[C@@H](CCCCN)C(=O)N[C@@H](Cc1ccc(O)cc1)C(=O)N[C@@H](CC(C)C)C(=O)N[C@@H](CC(=O)O)C(=O)N[C@@H](CCC(=O)O)C(=O)N[C@@H](CCCNC(=N)N)C(=O)N[C@@H](C)C(=O)N[C@@H](C)C(=O)N[C@@H](CCC(N)=O)C(=O)N[C@@H](CC(=O)O)C(=O)N[C@@](C)(Cc1ccccc1)C(=O)N[C@H](C(=O)N[C@@H](CCCCN=[N+]=[N-])C(=O)N[C@@H](Cc1c[nH]c2ccccc12)C(=O)N[C@@H](CC(C)C)C(=O)N[C@@H](CCS(C)(=O)=O)C(=O)N[C@@H](CC(=O)O)C(=O)N[C@H](C(N)=O)[C@@H](C)O)C(C)C)C(=O)O)C(=O)O [PEP35] |  |  | 1.0 | EC50 (human GLP1R; Table 5, incretin peptides, cAMP, read-out: hGLP1R EC50): 0.05 nM; EC50 (human GCGR; Table 5, incretin peptides, cAMP, read-out: hGCGR_EC50): 0.05 nM |
| HsQGTGTSD-K(γEγEC16)SKYLDURAAQDFV-Nle(ϵN3)-WLLDT-NH2 [PEP7] |  |  | 0.2 |  |
| CC(C)C[C@H](NC(=O)[C@H](Cc1ccc(O)cc1)NC(=O)[C@H](CCCCN)NC(=O)[C@H](CO)NC(=O)[C@H](Cc1ccc(O)cc1)NC(=O)[C@H](CC(=O)O)NC(=O)[C@H](CO)NC(=O)[C@@H](NC(=O)[C@H](Cc1ccccc1)NC(=O)[C@@H](NC(=O)CNC(=O)[C@H](CCC(N)=O)NC(=O)C(C)(C)NC(=O)[C@@H](N)Cc1c[nH]cn1)[C@@H](C)O)[C@@H](C)O)C(=O)N[C@@H](CC(=O)O)C(=O)N[C@@H](C)C(=O)N[C@@H](CCCNC(=N)N)C(=O)N[C@@H](C)C(=O)N[C@@H](C)C(=O)N[C@@H](CCCCNC(=O)COCCOCCNC(=O)COCCOCCNC(=O)CC[C@H](NC(=O)CCCCCCCCCCCCCCCCCCC(=O)O)C(=O)O)C(=O)N[C@@H](CC(=O)O)C(=O)N[C@@H](Cc1ccccc1)C(=O)N[C@H](C(=O)N[C@@H](CCCCN=[N+]=[N-])C(=O)N[C@@H](Cc1c[nH]c2ccccc12)C(=O)N[C@@H](CC(C)C)C(=O)N[C@@H](CCS(C)(=O)=O)C(=O)N[C@@H](CC(=O)O)C(=O)N[C@H](C(N)=O)[C@@H](C)O)C(C)C [PEP31] |  |  | 3.1 |  |
| CC(C)C[C@H](NC(=O)[C@H](Cc1ccc(O)cc1)NC(=O)[C@H](CCCCN)NC(=O)[C@H](CO)NC(=O)[C@H](CCCCNC(=O)COCCOCCNC(=O)COCCOCCNC(=O)CC[C@H](NC(=O)CCCCCCCCCCCCCCCCC(=O)O)C(=O)O)NC(=O)[C@H](CC(=O)O)NC(=O)[C@H](CO)NC(=O)[C@@H](NC(=O)[C@H](Cc1ccccc1)NC(=O)[C@@H](NC(=O)CNC(=O)[C@H](CCC(N)=O)NC(=O)[C@@H](CO)NC(=O)[C@@H](N)Cc1c[nH]cn1)[C@@H](C)O)[C@@H](C)O)C(=O)N[C@@H](CC(=O)O)C(=O)N[C@@H](CCC(=O)O)C(=O)N[C@@H](CCCNC(=N)N)C(=O)N[C@@H](C)C(=O)N[C@@H](C)C(=O)N[C@@H](CCC(N)=O)C(=O)N[C@@H](CC(=O)O)C(=O)N[C@@H](Cc1ccccc1)C(=O)N[C@H](C(=O)N[C@@H](CCCCN=[N+]=[N-])C(=O)N[C@@H](Cc1c[nH]c2ccccc12)C(=O)N[C@@H](CC(C)C)C(=O)N[C@@H](CC(C)C)C(=O)N[C@@H](CC(=O)O)C(=O)N[C@H](C(N)=O)[C@@H](C)O)C(C)C [PEP29] |  |  | 1.0 |  |
